# Test results: patent publication US8609672B2, “Piperazinylpyrimidine analogues as protein kinase inhibitors” (University of the Pacific, priority 2010, dated 2013)
# Experiments:
# Type in all cases: cell-based, human
# [1] = tested on: T-47D; assay: NCI-60 SRB growth inhibition: T-47D; conditions: Breast cancer, 48 hours treatment; for CC50: Homo sapiens, T47D, read-out: LC50 (the source's name)
# [2] = tested on: PC-3; assay: NCI-60 SRB growth inhibition: PC-3; conditions: PC-3, Prostate cancer; 48 hours treatment
# [3] = tested on: OVCAR-4; assay: NCI-60 SRB growth inhibition: OVCAR-4; conditions: OVCAR-4, Ovarian cancer, 48 hours treatment; for CC50: Homo sapiens, read-out: LC50 (the source's name)
# [4] = tested on: RPMI-8226; assay: NCI-60 SRB growth inhibition: RPMI-8226; conditions: RPMI-8226, Leukemia, 48 hours treatment; for CC50: Homo sapiens, read-out: LC50 (the source's name)
# [5] = tested on: HT29; assay: NCI-60 SRB growth inhibition: HT29; conditions: HT29, Colon cancer, 48 hours treatment; for CC50: Homo sapiens, HT-29, read-out: LC50 (the source's name)
# [6] = tested on: SK-MEL-2; assay: NCI-60 SRB growth inhibition: SK-MEL-2; conditions: SK-MEL-2, Melanoma; 48 hours treatment
# [7] = tested on: MALME-3M; assay: NCI-60 SRB growth inhibition: MALME-3M; conditions: Melanoma, 48 hours treatment
# [8] = tested on: RXF 393; assay: NCI-60 SRB growth inhibition: RXF 393; conditions: RXF 393, Renal cancer, 48 hours treatment; for CC50: Homo sapiens, read-out: LC50 (the source's name)
# [9] = tested on: OVCAR-8; assay: NCI-60 SRB growth inhibition: OVCAR-8; conditions: OVCAR-8, Ovarian cancer, 48 hours treatment; for CC50: Homo sapiens, read-out: LC50 (the source's name)
# [10] = tested on: EKVX; assay: NCI-60 SRB growth inhibition: EKVX; conditions: Non-small cell lung cancer, 48 hours treatment; for CC50: Homo sapiens, read-out: LC50 (the source's name)
# [11] = tested on: 786-0; assay: NCI-60 SRB growth inhibition: 786-0; conditions: 786-0, Renal cancer; 48 hours treatment
# [12] = tested on: SF-268; assay: NCI-60 SRB growth inhibition: SF-268; conditions: SF-268, CNS cancer; 48 hours treatment
# [13] = tested on: NCI/ADR-RES; assay: NCI-60 SRB growth inhibition: NCI/ADR-RES; conditions: Ovarian cancer, 48 hours treatment; for CC50: Homo sapiens, read-out: LC50 (the source's name)
# [14] = tested on: SK-MEL-28; assay: NCI-60 SRB growth inhibition: SK-MEL-28; conditions: SK-MEL-28, Melanoma, 48 hours treatment; for CC50: Homo sapiens, read-out: LC50 (the source's name)
# [15] = tested on: ACHN; assay: NCI-60 SRB growth inhibition: ACHN; conditions: Renal cancer, 48 hours treatment; for CC50: Homo sapiens, read-out: LC50 (the source's name)
# [16] = tested on: A549/ATCC; assay: NCI-60 SRB growth inhibition: A549/ATCC; conditions: Non-small cell lung cancer, 48 hours treatment; for CC50: Homo sapiens, read-out: LC50 (the source's name)
# [17] = tested on: LOX 1MVI; assay: NCI-60 SRB growth inhibition: LOX 1MVI; conditions: Melanoma, 48 hours treatment
# [18] = tested on: SK-MEL-5; assay: NCI-60 SRB growth inhibition: SK-MEL-5; conditions: SK-MEL-5, Melanoma; 48 hours treatment
# [19] = tested on: HS 578T; assay: NCI-60 SRB growth inhibition: HS 578T; conditions: Breast cancer, 48 hours treatment; for CC50: Homo sapiens, read-out: LC50 (the source's name)
# [20] = tested on: TK-10; assay: NCI-60 SRB growth inhibition: TK-10; conditions: TK-10, Renal cancer, 48 hours treatment; for CC50: Homo sapiens, read-out: LC50 (the source's name)
# [21] = tested on: U251; assay: NCI-60 SRB growth inhibition: U251; conditions: U251, CNS cancer, 48 hours treatment; for CC50: Homo sapiens, U-251, read-out: LC50 (the source's name)
# [22] = tested on: A498; assay: NCI-60 SRB growth inhibition: A498; conditions: A498, Renal cancer, 48 hours treatment; for CC50: Homo sapiens, read-out: LC50 (the source's name)
# [23] = tested on: NCI-60 cell line panel; assay: NCI-60 SRB growth inhibition: mean over the panel; conditions: mean over NCI-60 cell lines, 48 hours treatment; for GI50 / CC50: Homo sapiens; for CC50: read-out: Mean LC50
# [24] = tested on: HCC-2998; assay: NCI-60 SRB growth inhibition: HCC-2998; conditions: HCC-2998, Colon cancer; 48 hours treatment
# [25] = tested on: OVCAR-3; assay: NCI-60 SRB growth inhibition: OVCAR-3; conditions: OVCAR-3, Ovarian cancer; 48 hours treatment
# [26] = tested on: CAKI-1; assay: NCI-60 SRB growth inhibition: CAKI-1; conditions: CAKI-1, Renal cancer; 48 hours treatment
# [27] = tested on: HCT-15; assay: NCI-60 SRB growth inhibition: HCT-15; conditions: HCT-15, Colon cancer; 48 hours treatment
# [28] = tested on: HOP-62; assay: NCI-60 SRB growth inhibition: HOP-62; conditions: HOP-62, Non-small cell lung cancer; 48 hours treatment
# [29] = tested on: BT-549; assay: NCI-60 SRB growth inhibition: BT-549; conditions: for TGI: BT-549, Breast cancer, 48 hours treatment; for CC50: Homo sapiens, BT-549, 48 h, read-out: LC50 (the source's name)
# [30] = tested on: SNB-75; assay: NCI-60 SRB growth inhibition: SNB-75; conditions: SNB-75, CNS cancer, 48 hours treatment; for CC50: Homo sapiens, read-out: LC50 (the source's name)
# [31] = tested on: OVCAR-5; assay: NCI-60 SRB growth inhibition: OVCAR-5; conditions: OVCAR-5, Ovarian cancer, 48 hours treatment; for CC50: Homo sapiens, read-out: LC50 (the source's name)
# [32] = tested on: SK-OV-3; assay: NCI-60 SRB growth inhibition: SK-OV-3; conditions: SK-OV-3, Ovarian cancer; 48 hours treatment
# [33] = tested on: IGROVI; assay: NCI-60 SRB growth inhibition: IGROVI; conditions: Ovarian cancer, 48 hours treatment; for CC50: Homo sapiens, read-out: LC50 (the source's name)
# [34] = tested on: UO-31; assay: NCI-60 SRB growth inhibition: UO-31; conditions: UO-31, Renal cancer; 48 hours treatment
compound,measurement,setting,value
"c1ccc(Cc2cnc(N3CCN(c4ncnc5ccccc45)CC3)nc2)cc1 [Compound 4, 4-(4-(5-benzylpyrimidin-2-yl)piperazin-1-yl)quinazoline]",TGI,[1],45.50 µM
same,CC50,[1],> 100 µM
same,TGI,[2],>100 µM
same,CC50,[3],> 100 µM
same,TGI,[3],>100 µM
same,CC50,[4],97.3 µM
same,TGI,[4],21.80 µM
same,TGI,[5],35.10 µM
same,CC50,[5],79.2 µM
same,TGI,[6],35.80 µM
same,TGI,[7],33.60 µM
same,CC50,[8],> 100 µM
same,TGI,[8],57.90 µM
same,CC50,[9],71.3 µM
same,TGI,[9],25.60 µM
same,CC50,[10],> 100 µM
same,TGI,[10],33.10 µM
same,TGI,[11],36.70 µM
same,TGI,[12],57.20 µM
same,CC50,[13],66.4 µM
same,TGI,[13],17.60 µM
same,CC50,[14],> 100 µM
same,TGI,[14],99.30 µM
same,CC50,[15],> 100 µM
same,TGI,[15],42.40 µM
same,CC50,[16],> 100 µM
same,TGI,[16],35.70 µM
same,TGI,[17],19.60 µM
same,TGI,[18],13.90 µM
same,TGI,[19],54.80 µM
same,CC50,[19],> 100 µM
same,CC50,[20],> 100 µM
same,TGI,[20],60.80 µM
same,CC50,[21],54.1 µM
same,TGI,[21],24.60 µM
same,TGI,[22],24.20 µM
same,CC50,[22],50.1 µM
same,GI50,[23],5.24 µM
same,CC50,[23],81.3 µM
same,Mean TGI,[23],37.15 µM
same,TGI,[24],60.90 µM
same,TGI,[25],23.20 µM
same,TGI,[26],39.30 µM
same,TGI,[27],63.20 µM
same,TGI,[28],51.60 µM
same,TGI,[29],18.40 µM
same,CC50,[29],43 µM
same,CC50,[30],> 100 µM
same,TGI,[30],78.20 µM
same,CC50,[31],> 100 µM
same,TGI,[31],69.80 µM
same,TGI,[32],>100 µM
same,CC50,[33],> 100 µM
same,TGI,[33],63.30 µM
same,TGI,[34],38.40 µM
"CCc1cnc(N2CCN(C(=O)c3ccc(CNc4ncnc5ccccc45)cc3)CC2)nc1 [Compound 15, (4-(5-ethylpyrimidin-2-yl)piperazin-1-yl)(4-((quinazolin-4-ylamino)methyl)phenyl)methanone]",TGI,[1],>100 µM
same,CC50,[1],> 100 µM
same,TGI,[2],>100 µM
same,CC50,[3],> 100 µM
same,TGI,[3],58.80 µM
same,CC50,[4],> 100 µM
same,TGI,[4],14.30 µM
same,TGI,[5],83.20 µM
same,CC50,[5],> 100 µM
same,TGI,[6],>100 µM
same,TGI,[7],42.20 µM
same,CC50,[8],> 100 µM
same,TGI,[8],41.60 µM
same,CC50,[9],> 100 µM
same,TGI,[9],>100 µM
same,CC50,[10],> 100 µM
same,TGI,[10],61.40 µM
same,TGI,[11],54.80 µM
same,TGI,[12],>100 µM
same,CC50,[13],> 100 µM
same,TGI,[13],21.50 µM
same,CC50,[14],> 100 µM
same,TGI,[14],>100 µM
same,CC50,[15],> 100 µM
same,TGI,[15],82.50 µM
same,CC50,[16],> 100 µM
same,TGI,[16],>100 µM
same,TGI,[17],28.70 µM
same,TGI,[18],2.90 µM
same,TGI,[19],>100 µM
same,CC50,[19],> 100 µM
same,CC50,[20],> 100 µM
same,TGI,[20],>100 µM
same,CC50,[21],> 100 µM
same,TGI,[21],>100 µM
same,TGI,[22],>100 µM
same,CC50,[22],> 100 µM
same,GI50,[23],4.46 µM
same,CC50,[23],> 100 µM
same,Mean TGI,[23],51.28 µM
same,TGI,[24],48.90 µM
same,TGI,[25],>100 µM
same,TGI,[26],94.80 µM
same,TGI,[27],>100 µM
same,TGI,[28],>100 µM
same,TGI,[29],10.70 µM
same,CC50,[29],> 100 µM
same,CC50,[30],> 100 µM
same,TGI,[30],58.20 µM
same,CC50,[31],> 100 µM
same,TGI,[31],>100 µM
same,TGI,[32],>100 µM
same,CC50,[33],> 100 µM
same,TGI,[33],49.80 µM
same,TGI,[34],60.50 µM
"O=C(c1cccc(Nc2ncnc3ccccc23)c1)N1CCN(c2ncc(Cc3ccccc3)cn2)CC1 [Compound 16, (4-(5-benzylpyrimidin-2-yl)piperazin-1-yl)(3-(quinazolin-4-ylamino)phenyl)methanone]",TGI,[1],7.59 µM
same,CC50,[1],5.62 µM
same,TGI,[2],2.88 µM
same,CC50,[3],7.59 µM
same,TGI,[3],1.95 µM
same,CC50,[4],3.89 µM
same,TGI,[4],0.60 µM
same,TGI,[5],9.33 µM
same,CC50,[5],> 100 µM
same,TGI,[6],2.69 µM
same,TGI,[7],2.57 µM
same,CC50,[8],> 100 µM
same,TGI,[8],11.48 µM
same,CC50,[9],> 100 µM
same,TGI,[9],3.31 µM
same,CC50,[10],> 100 µM
same,TGI,[10],4.90 µM
same,TGI,[11],6.61 µM
same,TGI,[12],>100 µM
same,CC50,[13],> 100 µM
same,TGI,[13],8.51 µM
same,CC50,[14],5.25 µM
same,TGI,[14],2.82 µM
same,CC50,[15],> 100 µM
same,TGI,[15],4.57 µM
same,CC50,[16],8.13 µM
same,TGI,[16],3.09 µM
same,TGI,[17],2.45 µM
same,TGI,[18],1.20 µM
same,TGI,[19],7.41 µM
same,CC50,[19],> 100 µM
same,CC50,[20],39.8 µM
same,TGI,[20],6.17 µM
same,CC50,[21],> 100 µM
same,TGI,[21],6.61 µM
same,TGI,[22],5.37 µM
same,CC50,[22],> 100 µM
same,GI50,[23],1.05 µM
same,Mean TGI,[23],3.24 µM
same,TGI,[24],3.98 µM
same,TGI,[25],8.13 µM
same,TGI,[26],1.91 µM
same,TGI,[27],3.55 µM
same,TGI,[28],3.47 µM
same,TGI,[29],1.74 µM
same,CC50,[29],5.37 µM
same,CC50,[30],> 100 µM
same,TGI,[30],5.89 µM
same,CC50,[31],> 100 µM
same,TGI,[31],5.75 µM
same,TGI,[32],4.47 µM
same,CC50,[33],5.01 µM
same,TGI,[33],1.82 µM
same,TGI,[34],1.82 µM
